EP2698385A1, “Detection of synthetic cannabinoids” (priority 2012, dated 2014)

Tests used:
[1] = test system: antiserum raised to Immunogen II (Hapten B-BTG); assay: Competitive ELISA microtiter plate assay (Example 19), antiserum raised to Immunogen II, Hapten A-HRP conjugate as detection reagent; format: binding, sheep
Experimental: (§1) Aqueous solutions of the immunogens prepared in examples 5 and 13 were formulated with Freund's Complete Adjuvant (FCA) to form emulsions consisting of 2mg/ml Immunogen I and 2mg/ml of Immunogen II in 50%(v/v) FCA. Three sheep were immunised with each emulsion (1° immunisations), 0.25ml being intramuscularly injected at four sites in the rump of each animal. Subsequent immunisations (boosts 2-8) contained 1mg/ml Immunogen I and 1mg/ml Immunogen II. All boosts were emulsified in 50%(v/v) Freund's Incomplete Adjuvant (FIA) and administered to the appropriate sheep in the same manner as the 1° immunisations, at monthly intervals. Blood sampling took place 7-14 days after each boost. Each sample was processed to produce antiserum, which was further purified by caprylic acid and ammonium sulphate precipitation to yield an immunoglobulin (Ig) fraction. The Ig fraction was evaluated by competitive ELISA microtiter plate assay, as described in example 19 below.
(§2) Example 19: Development of competitive ELISA for JWH synthetic cannabinoids and metabolites. • (a) The wells of an enhanced binding 96 well polystyrene microtiter plate were coated with the Ig fraction of the antiserum raised to Immunogen I (Hapten A-BTG - example 5) and diluted in 10mM Tris, pH8.5 (125µl/well). The appropriate antibody coating concentration was determined using standard ELISA checkerboard techniques. The plate was incubated for 2 hours at 37°C, washed 4 times over a 10-minute period with Tris buffered saline containing Tween 20 (TBST) and tapped dry. Standard solutions of JWH synthetic cannabinoids, metabolites and selected molecules were prepared in TBST and 50µl of each was added to the appropriate wells. 75µl of conjugate (Hapten A-HRP) diluted in Tris buffer containing EDTA, D-mannitol, sucrose, thimerosal and BSA, was added to each of the wells. The appropriate dilution of conjugate was also determined using standard ELISA checkerboard techniques. The plate was incubated at 25°C for 1 hour. The excess unbound conjugate was removed by washing 6 times over a 10-minute period with TBST and tapped dry. 125µl of tetramethylbenzedine (TMB) substrate solution was added to each well of the plate that was then incubated for 15-20 minutes in the dark at room temperature. The reaction was terminated by addition of 125µl of 0.2M sulphuric acid to each well. The absorbance was then measured at 450nm using a microtiter plate reader. Employing each series of standards, calibration curves were generated and these were used to determine the specificity of the immunoassay for the JWH synthetic cannabinoids, metabolites and selected molecules. The results of this study are presented in Tables 1 to 3, cross-reactivity being calculated according to the following formula: %CR = […] /IC50,CR X 100 [formula] Where %CR is the percentage cross-reactivity, IC50, YWH-018 is the concentration of JWH-018 that causes 50% displacement of signal and IC50, CR is the concentration of JWH synthetic cannabinoid/metabolite/selected molecule that causes 50% displacement of signal.
Table 1: Data generated from a competitive microtiter plate assay for JWH synthetic cannabinoids and metabolites, employing antiserum raised to Immunogen II (Hapten B-BTG) and conjugate (Hapten A-HRP) as detection reagent. (b) In a similar manner to that described in Example 19(a), the wells of a 96 well microtiter plate were coated with the Ig fraction of the antiserum raised to Immunogen II ([…]). Conjugate (Hapten A-HRP) was employed as a detection reagent.

[2] = test system: antiserum raised to Immunogen I (Hapten A-BTG); assay: Competitive ELISA microtiter plate assay (Example 19), antiserum raised to Immunogen I, Hapten A-HRP conjugate as detection reagent; format: binding, sheep; conditions: for binding to the antibody produced from Immunogen I: result in words
Experimental: as §1, §2
Table 1: Data generated from a competitive microtiter plate assay for JWH synthetic cannabinoids and metabolites, employing antiserum raised to Immunogen II (Hapten B-BTG) and conjugate (Hapten A-HRP) as detection reagent. (b) In a similar manner to that described in Example 19(a), the wells of a 96 well microtiter plate were coated with the Ig fraction of the antiserum raised to Immunogen II ([…]). Conjugate (Hapten A-HRP) was employed as a detection reagent. […]

[3] = Table 1, 40 ng/ml highest concentration tested
[4] = Table 1, CR based on 100% for JWH-018
[5] = Table 2, 40 ng/ml highest concentration tested
[6] = Table 2, CR based on 100% for JWH-018

SMILES | IC50 [1, 3] [ng/mL] | % Cross-reactivity [1, 4] | IC50 [2, 5] [ng/mL] | % Cross-reactivity [2, 6] | IC50 ([1]; first Table 4, Immunogen II) [ng/mL] | % Cross-reactivity ([1]; first Table 4, Immunogen II, JWH-018 = 100) [%] | IC50 ([2]; first Table 4, Immunogen I) [ng/mL] | % Cross-reactivity ([2]; first Table 4, Immunogen I, JWH-018 = 100) [%] | binding to the antibody produced from Immunogen I [2] | IC50 ng/ml [2, 5] | IC50 ng/ml [1, 3]
CCCCn1cc(C(=O)c2cccc3ccccc23)c2ccccc21 [JWH-073] | 1.56 | 135.26% | 0.93 | 291.40% |  |  |  |  |  |  | 
CCCCCn1cc(C(=O)c2cccc3ccccc23)c2c(O)cccc21 [JWH-018 4-hydroxyindole metabolite] | 9.16 | 23.03% | 25.51 | 10.62% |  |  |  |  |  |  | 
O=C(c1cccc2ccccc12)c1cn(CCCCCO)c2ccccc12 [JWH-018 N-(5-hydroxypentyl) metabolite] | 1.15 | 183.48% | 0.18 | 1505.56% |  |  |  |  |  |  | 
CCCCCn1cc(C(=O)c2cccc3ccccc23)c2ccccc21 [JWH-018] | 2.11 | 100.00% | 2.71 | 100.00% | 1.97 | 100.00 | 2.30 | 100.00 | able to bind |  | 
O=C(c1cccc2ccccc12)c1cn(CCN2CCOCC2)c2ccccc12 [WIN 55,225 (other name JWH-200), JWH-200] | 1.66 | 127.11% | 0.31 | 874.19% |  |  |  |  |  |  | 
CCCCCn1cc(C(=O)c2ccc(Cl)c3ccccc23)c2ccccc21 [JWH-398] | 17.55 | 12.02% |  | << 6.78% |  |  |  |  |  | >> 40 ng/ml | 
O=C(O)CCCCn1cc(C(=O)c2cccc3ccccc23)c2ccccc21 [JWH-018 N-pentanoic acid metabolite] | 5.48 | 38.50% | 0.42 | 645.24% |  |  |  |  |  |  | 
CCCCCn1cc(C(=O)c2cccc3ccccc23)c2cc(O)ccc21 [JWH-018 5-hydroxyindole metabolite] | 1.62 | 130.25% | 0.39 | 694.87% |  |  |  |  | able to bind |  | 
CCCCCn1cc(C(=O)c2cccc3ccccc23)c2ccc(O)cc21 [JWH-018 6-hydroxyindole metabolite] | 0.98 | 215.31% | 2.04 | 132.84% |  |  |  |  | able to bind |  | 
O=C(c1cccc2ccccc12)c1c[nH]c2ccccc12 [3-(1-naphthoyl)-1H-Indole, 3-(1-naphthoyl)-1H-indole] |  | << 5.28% | 3.84 | 70.57% |  |  |  |  |  |  | >> 40 ng/ml
